Measured values as given in ChEMBL document CHEMBL1125732, “Synthesis and benzodiazepine binding activity of a series of novel [1,2,4]triazolo[1,5-c]quinazolin-5(6H)-ones” (J Med Chem, 1991).

How the values were obtained:
[1] = molecular target: GABA-A receptor; anion channel; assay: Binding affinity at Benzodiazepine receptor of rat forebrain by [3H]- flunitrazepam displacement.
[2] = molecular target: T1, GABA-A receptor; anion channel (Mus musculus) (UniProt Q8BHJ7+P26048+Q8QZW7+P50571+Q9R0Y8+P22723+A2AMW3+P62812+Q9JLF1+P26049+P22933+Q9D6F4+P63080+P27681+P16305); assay: In vivo percentage inhibition of flunitrazepam binding to Benzodiazepine receptor in mouse fore brain at 30 mg/Kg.; format: organism-based
[3] = molecular target: GABA-A receptor; anion channel; assay: Displacement of [3H]- Diazepam from GABA-A Benzodiazepine receptor of rat forebrain
Rattus norvegicus [4] = assay: Antagonism of Diazepam anti-convulsive effects in rats treated with metrazole ip dose at 30 mg/kg, 0/6 rats affected; format: functional; settings: route intraperitoneal
Rattus norvegicus [5] = assay: Antagonism of Diazepam anti-convulsive effects in rats treated with metrazole ip dose at 0.3 mg/kg, 5/6 rats affected; format: functional; settings: route intraperitoneal
Rattus norvegicus [6] = assay: Antagonism of Diazepam anti-convulsive effects in rats treated with metrazole ip dose at 3mg/kg, 2/6 rats affected; format: functional
Rattus norvegicus [7] = assay: Antagonism of Diazepam anti-convulsive effects in rats treated with metrazole ip dose at 1 mg/kg in rats, 1/6 rats affected; format: functional; settings: route intraperitoneal
Rattus norvegicus [8] = assay: Antagonism of Diazepam anti-convulsive effects in rats treated with metrazole ip dose at 10 mg/kg, 0/6 rats affected; format: functional; settings: route intraperitoneal
Rattus norvegicus [9] = assay: Antagonism of diazepam-induced rotarod deficit on ip dose in rats; format: functional
Rattus norvegicus [10] = species on record: Rattus norvegicus; assay: Antagonism of diazepam-induced rotarod deficit on peroral dose in rats; format: functional; settings: po
Rattus norvegicus [11] = assay: Antagonism of Diazepam anti-convulsive effects in rats treated with metrazole ip dose at 1 mg/kg, 5/6 rats affected; format: functional; settings: route intraperitoneal
Rattus norvegicus [12] = assay: Antagonism of Diazepam anti-convulsive effects in rats treated with metrazole ip dose at 20 mg/kg, 0/6 rats affected; format: functional; settings: route intraperitoneal
Rattus norvegicus [13] = species on record: Rattus norvegicus; assay: Antagonism of diazepam-induced discriminative stimuli in rats by peroral dose; format: functional; settings: po
Rattus norvegicus [14] = assay: Antagonism of Diazepam anti-convulsive effects in rats treated with metrazole ip dose at 3mg/kg, 1/6 rats affected; format: functional
[15] = molecular target: T1, GABA-A receptor; anion channel (Mus musculus); settings: 30 mg/kg
Description: In vivo percentage inhibition of flunitrazepam binding to mouse fore brain at 30 mg/kg

[16] = molecular target: GABA-A receptor; anion channel; assay: Displacement of [3H]diazepam from GABA-A Benzodiazepine receptor of rat forebrain
[17] = molecular target: GABA-A receptor; anion channel; assay: Displacement of [3H]flunitrazepam from GABA-A Benzodiazepine receptor of rat forebrain
Rattus norvegicus [18] = assay: Antagonism of Diazepam anti-convulsive effects in rats treated with metrazole ip dose at 0.3mg/kg, 6/6 rats affected; format: functional
Rattus norvegicus [19] = assay: Antagonism of diazepam-induced discriminative stimuli in rats by ip dose; format: functional
Rattus norvegicus [20] = species on record: Rattus norvegicus; assay: Antagonism of diazepam-induced rotarod deficit after peroral dose in rats; format: functional; settings: po
Rattus norvegicus [21] = assay: Antagonism of Diazepam anti-convulsive effects in rats treated with metrazole ip dose at 1 mg/kg, 2/6 rats affected; format: functional; settings: route intraperitoneal
Rattus norvegicus [22] = assay: Antagonism of Diazepam anti-convulsive effects in rats treated with metrazole ip dose at 1 mg/kg, 3/6 rats affected; format: functional; settings: route intraperitoneal

SMILES: Oc1ccc(-c2nc3c4cc(Cl)ccc4nc(O)n3n2)cc1
- IC50 [1]: 0.3 nM
- inhibition [2]: 0%

SMILES: OCc1nc2c3ccccc3nc(O)n2n1
- IC50 [1]: > 100 nM
- inhibition [2]: 0%

SMILES: Oc1nc2ccccc2c2nc(-c3ccc(Cl)cc3)nn12
- IC50 [3]: > 10000 nM

SMILES: Oc1nc2ccc(Cl)cc2c2nc(-c3cccc(F)c3)nn12
- Antagonist effect (Rattus norvegicus [4]): 0
- IC50 [1]: 4 nM
- Antagonist effect (Rattus norvegicus [5]): 5
- Antagonist effect (Rattus norvegicus [6]): 2
- Antagonist effect (Rattus norvegicus [7]): 1
- Antagonist effect (Rattus norvegicus [8]): 0
- inhibition [2]: 31%
- ED50 (Rattus norvegicus [9]): > 30 mg/kg

SMILES: Oc1nc2ccccc2c2nc(C(F)(F)F)nn12
- IC50 [3]: > 1000 nM

SMILES: O=C1C2C=Nc3ccccc3C2=NN1c1ccccc1 (centres undefined) [CGS-8216]
- ED50 (Rattus norvegicus [10]): 0.6 mg/kg
- Antagonist effect (Rattus norvegicus [11]): 5
- Antagonist effect (Rattus norvegicus [12]): 0
- ED50 (Rattus norvegicus [13]): 1.61 mg/kg
- Antagonist effect (Rattus norvegicus [14]): 1
- inhibition [15]: 90%
- Antagonist effect (Rattus norvegicus [8]): 0
- IC50 [16]: 0.3 nM
- IC50 [17]: 4.4 nM

SMILES: Oc1nc2ccc(Cl)cc2c2nc(-c3ccccn3)nn12
- IC50 [3]: 100 nM

SMILES: Cc1ccc(-c2nc3c4cc(Cl)ccc4nc(O)n3n2)cc1
- IC50 [1]: 200 nM
- inhibition [2]: 63%

SMILES: Oc1nc2ccc(Cl)cc2c2nc(-c3cccnc3)nn12
- IC50 [3]: 10 nM
- inhibition [2]: 24%

SMILES: Oc1nc2ccc(Cl)cc2c2nc(-c3ccc(C(F)(F)F)cc3)nn12
- IC50 [1]: > 1000 nM

SMILES: CN1C(=O)CN=C(c2ccccc2F)c2cc([N+](=O)[O-])ccc21 [FLUNITRAZEPAM]
- IC50 [16]: 1.5 nM

SMILES: Oc1nc2ccc(Cl)cc2c2nc(-c3ccoc3)nn12
- IC50 [1]: 3.5 nM

SMILES: O=c1[nH]c2ccccc2c2nc(-c3ccncc3)nn12
- IC50 [3]: 200 nM

SMILES: Oc1nc2ccc(Cl)cc2c2nc(-c3ccccc3F)nn12
- Antagonist effect (Rattus norvegicus [4]): 0
- Antagonist effect (Rattus norvegicus [18]): 6
- IC50 [1]: 0.4 nM
- ED50 (Rattus norvegicus [19]): 2.99 mg/kg
- ED50 (Rattus norvegicus [13]): 6.51 mg/kg
- Antagonist effect (Rattus norvegicus [6]): 2
- ED50 (Rattus norvegicus [20]): 5.5 mg/kg
- Antagonist effect (Rattus norvegicus [8]): 0
- inhibition [2]: 76%
- ED50 (Rattus norvegicus [9]): 6.92 mg/kg
- Antagonist effect (Rattus norvegicus [21]): 2

SMILES: Oc1nc2c(Cl)cc(Cl)cc2c2nc(-c3ccccc3)nn12
- IC50 [3]: 200 nM
- inhibition [2]: 6%

SMILES: Cn1c(=O)n2nc(-c3ccccc3)nc2c2ccccc21
- IC50 [3]: 350 nM
- inhibition [2]: 55%

SMILES: Oc1nc2ccccc2c2nc(-c3ccncc3)nn12
- inhibition [2]: 19%

SMILES: Oc1nc2ccc(Cl)cc2c2nc(Cc3ccccc3)nn12
- IC50 [1]: 100 nM
- inhibition [2]: 0%

SMILES: Oc1nc2ccc(Cl)cc2c2nc(-c3ccccc3)nn12
- Antagonist effect (Rattus norvegicus [4]): 0
- Antagonist effect (Rattus norvegicus [22]): 3
- Antagonist effect (Rattus norvegicus [18]): 6
- IC50 [1]: 8 nM
- Antagonist effect (Rattus norvegicus [6]): 2
- ED50 (Rattus norvegicus [20]): 2.8 mg/kg
- Antagonist effect (Rattus norvegicus [8]): 0
- inhibition [2]: 72%
- ED50 (Rattus norvegicus [9]): 26 mg/kg

SMILES: Cn1c(=O)n2nc(-c3cccnc3)nc2c2ccccc21
- IC50 [3]: > 10000 nM

SMILES: Cn1c(=O)n2nc(C(F)(F)F)nc2c2ccccc21
- IC50 [3]: > 1000 nM

SMILES: Oc1nc2ccc(Cl)cc2c2nc(-c3ccco3)nn12
- IC50 [1]: 0.6 nM
- inhibition [2]: 15%

SMILES: COc1ccc(-c2nc3c4cc(Cl)ccc4nc(O)n3n2)cc1
- IC50 [1]: 3 nM

SMILES: Oc1nc2ccc(Cl)cc2c2nc(-c3cccs3)nn12
- IC50 [1]: 0.6 nM
- inhibition [2]: 21%

SMILES: Oc1nc2ccccc2c2nc(-c3ccccc3F)nn12
- IC50 [1]: 0.4 nM
- inhibition [2]: 41%

SMILES: CN1CCCC(c2nc3c4cc(Cl)ccc4nc(O)n3n2)C1 (centres undefined)
- IC50 [1]: > 1000 nM

SMILES: Oc1nc2ccc(Cl)cc2c2nc(-c3ccc(F)cc3)nn12
- IC50 [1]: 20 nM
- inhibition [2]: 52%

SMILES: COc1cc(-c2nc3c4cc(Cl)ccc4nc(O)n3n2)cc(OC)c1OC
- IC50 [1]: > 1000 nM

SMILES: Oc1nc2ccc(Cl)cc2c2nc(C3CCCO3)nn12 (centres undefined)
- IC50 [1]: > 100 nM

SMILES: Oc1nc2ccccc2c2nc(-c3ccccc3)nn12
- IC50 [3]: 4 nM
- inhibition [2]: 55%

SMILES: Oc1nc2ccccc2c2nc(-c3cccnc3)nn12
- IC50 [3]: 130 nM
- inhibition [2]: 48%

SMILES: CCOc1nc2c3ccccc3nc(O)n2n1
- IC50 [1]: 2.5 nM
- inhibition [2]: 0%
